Patent publication US5556849A, “Ruthenium containing phthalocyanin photosensitizers” (priority 1991, dated 1996)

Key:
[1] = test system: Adherent cells (HeLa RCA. SKOV OVCAR); test: Phototoxicity (Light): 3H-thymidine incorporation in adherent cells after irradiation, with dark cytotoxicity for PI; format: cell-based
Protocol: The media is removed and the cells washed three times with D-PBS. and then covered with D-PBS (200 μl ) and exposed to light from the same source used in the singlet oxygen assay.
This follows the procedure for phototoxicity except that the cells are never exposed to light. The assay is relative to a non-treated control.
(§1) Compounds according to the invention were assessed and characterised by their light absorption maxima, and their molar extinction coefficients according to conventional test procedures. Most of the compound were tested for their biological activity according to conventional test procedures in the art. The PC50 represents phototoxic concentration 50%. which is the concentration of compound when exposed to a light dose as described herein, causes a 50% reduction in cancer cell growth vs an untreated control population. The phototoxicity index. PI, is the ratio of the PC50 to the cytotoxic concentration 50%. where the growth is reduced by 50% without a light dose being given.
PC50 is determined by a relatively simple in vitro assay on a cellular level, which is generally indicative of photosensitizing activity.

[2] = Light absorption maxima and molar extinction coefficients; format: physicochemical
Protocol: as §1

normal rat liver = test: Photodynamic threshold dose in normal rat liver, depth of necrosis; format: in vivo, adult Wistat rats
Protocol: The photodynamic threshold dose in normal rat liver was used as a model. This has been developed by Singh and Wilson at McMaster University and used to study both chloroaluminum phthalocyanine sulfonate (ASPc) and photofrin (Patterson, M S, et at, Photochern Photobiol, 51,343-349, 1990, and Farrell, T J, et at, Proc SPIE1426, 146-155, 1991).
1. Inject compound at 2.5 mg/ml into tail vein of adult Wistat rats at doses of 5, 10.20 mg/kg.
2. 24 hours later expose liver by laparotomy and irradiate surface at up to four locations with a 5 mm diameter lightbeam from an argon-dye laser operating at 650 nm: incident power =40 m Watt: incident fluenee rate =200 mW cm^-2 : treatment time =5 or 10 minutes (60. 120 Joules cm^-2).
3. 24 hours later inject Evans Blue iv, sacrifice at 15 minutes, section Liver through each radiation spot and measure depth of necrosis as indicated by dye exclusion.

[3] = Singlet oxygen generation by photo-degradation of nitrosoanaline dye; conditions: 15 minutes of irradiation, 4° C.

Row | Substance | PI (phototoxicity index) ([1]; ratio of PC50 to cytotoxic concentration 50% (no light)) | IC50 ([1]; with light dose, 50% reduction in cancer cell growth vs untreated control, 24 h incubation with sensitizer, read-out: PC50 (phototoxic concentration 50%)) | ε (molar extinction coefficient) [2] | λmax Q ([2]; in water (W)) | depths of necrosis compared with previously studied agents (normal rat liver; at similar drug and light levels, Photofrin and AlSPc given ip) | Depth of Necrosis (normal rat liver; dose 5 mg/kg iv, fluence 60 J cm^-2, 650 nm) | Depth of Necrosis (normal rat liver; dose 5 mg/kg iv, fluence 120 J cm^-2, 650 nm) | Depth of Necrosis (normal rat liver; dose 10 mg/kg iv, fluence 60 J cm^-2, 650 nm) | Depth of Necrosis (normal rat liver; dose 10 mg/kg iv, fluence 120 J cm^-2, 650 nm) | Depth of Necrosis (normal rat liver; dose 20 mg/kg iv, fluence 60 J cm^-2, 650 nm) | Depth of Necrosis (normal rat liver; dose 20 mg/kg iv, fluence 120 J cm^-2, 650 nm) | photodynamic activity in vivo (normal rat liver; in words) | rate of singlet oxygen production [3]
1 | K2 [Ru(Pc)bis(triphenvlphosphine monosulfonate)]trihydrate [Compound A] | > 100 | 1140 nM | 88200 M⁻¹ cm⁻¹ | 650 | comparable to those with previously studied agents | 1.86 ± 0.34 mm | 2.5 ± 0.0 mm | 2.16 ± 0.10 mm | 2.41 ± 0.16 mm | 1.66 ± 0.05 mm | 1.94 ± 0.04 mm | photodynamically active in vivo | 
2 | aluminium phthalocyanine sulphonate |  |  |  |  |  |  |  |  |  |  |  |  | on the order of one or two logs better than some of the sensitizers listed
